Assay results reported in the CheMixHub viscosity set.

Assay: xn = mol fraction of the nth substance listed

CCCCOC(=O)c1ccccc1 + CCCCCCC
viscosity [mPa·s], 101 kPa
Conditions | x1 = 0.0994 | x1 = 0.1959 | x1 = 0.2964 | x1 = 0.3986 | x1 = 0.4963 | x1 = 0.5965 | x1 = 0.6954 | x1 = 0.7986 | x1 = 0.8973
298.15 K | 0.457 | 0.536 | 0.645 | 0.777 | 0.95 | 1.162 | 1.411 | 1.731 | 2.122
308.15 K | 0.41 | 0.476 | 0.571 | 0.686 | 0.811 | 0.978 | 1.176 | 1.413 | 1.727
318.15 K | 0.368 | 0.426 | 0.501 | 0.598 | 0.697 | 0.835 | 0.991 | 1.192 | 1.426

O=S(=O)([O-])[O-].O=S(=O)([O-])[O-].O=S(=O)([O-])[O-].[Fe+3].[Fe+3] + O
323.15 K, 101.3 kPa
Conditions | viscosity [mPa·s]
x1 = 0.0012 | 0.617
x1 = 0.0024 | 0.645
x1 = 0.00498 | 0.768
x1 = 0.00789 | 0.982
x1 = 0.0111 | 1.275

Nc1ccccc1 + CCCCCCCCCO
viscosity [mPa·s], 100 kPa
Conditions | x1 = 0.0851 | x1 = 0.1597 | x1 = 0.2339 | x1 = 0.3537 | x1 = 0.4468 | x1 = 0.5616 | x1 = 0.6482 | x1 = 0.7383 | x1 = 0.8486 | x1 = 0.9448
293.15 K | 9.99 | 8.96 | 8.14 | 6.97 | 6.19 | 5.33 | 4.9 | 4.53 | 4.24 | 4.2
303.15 K | 6.9 | 6.21 | 5.58 | 4.87 | 4.36 | 3.79 | 3.46 | 3.24 | 3.06 | 3.04
313.15 K | 4.94 | 4.47 | 4.08 | 3.58 | 3.25 | 2.85 | 2.64 | 2.48 | 2.38 | 2.38
323.15 K | 3.67 | 3.35 | 3.06 | 2.71 | 2.47 | 2.19 | 2.05 | 1.94 | 1.87 | 1.88

CCC(O)CO (stereo not given) + CCCCO
viscosity [mPa·s], 100 kPa
Conditions | x2 = 0.101 | x2 = 0.2 | x2 = 0.302 | x2 = 0.4 | x2 = 0.5 | x2 = 0.501 | x2 = 0.601 | x2 = 0.701 | x2 = 0.801 | x2 = 0.901
298.15 K | 34.46 | 23.34 | 17.03 | 12.19 | 8.818 | – | 6.546 | 5.014 | 3.978 | 3.113
303.15 K | 25.85 | 17.61 | 13.14 | 10.08 | 7.482 | – | 5.629 | 4.383 | 3.441 | 2.757
308.15 K | 19.83 | 13.86 | 10.42 | 8.155 | 6.2 | – | 4.703 | 3.738 | 2.982 | 2.41
313.15 K | 15.54 | 10.92 | 8.434 | 6.703 | 5.179 | – | 3.992 | 3.217 | 2.596 | 2.122
318.15 K | 12.35 | 8.882 | 6.942 | 5.58 | – | 4.373 | 3.419 | 2.793 | 2.271 | 1.874
323.15 K | 9.916 | 7.286 | 5.744 | 4.694 | – | 3.724 | 2.942 | 2.417 | 1.989 | 1.66

CCCBr + C1CCCCC1
308.15 K, 101 kPa
Conditions | viscosity [mPa·s]
x2 = 0.0957 | 0.4455
x2 = 0.1997 | 0.46
x2 = 0.2991 | 0.4715
x2 = 0.4983 | 0.516
x2 = 0.6052 | 0.5432
x2 = 0.7135 | 0.5889
x2 = 0.801 | 0.6197
x2 = 0.9011 | 0.6872

COCCOCCOCCO + ClC(Cl)=C(Cl)Cl
298.15 K, 101.33 kPa
Conditions | viscosity [mPa·s]
x1 = 0.0078 | 0.862
x1 = 0.016 | 0.883
x1 = 0.0295 | 0.915
x1 = 0.047 | 0.956
x1 = 0.0598 | 0.989
x1 = 0.0696 | 1.016
x1 = 0.0802 | 1.046
x1 = 0.0924 | 1.081
x1 = 0.1201 | 1.162
x1 = 0.1568 | 1.28
x1 = 0.2009 | 1.432
x1 = 0.2413 | 1.592
x1 = 0.2894 | 1.795
x1 = 0.3457 | 2.047
x1 = 0.3797 | 2.209
x1 = 0.4041 | 2.334
x1 = 0.462 | 2.64
x1 = 0.4933 | 2.812
x1 = 0.5379 | 3.072
x1 = 0.5783 | 3.326
x1 = 0.6154 | 3.56
x1 = 0.6587 | 3.856
x1 = 0.7026 | 4.163
x1 = 0.7393 | 4.431
x1 = 0.787 | 4.797
x1 = 0.8264 | 5.117
x1 = 0.886 | 5.597
x1 = 0.9108 | 5.82
x1 = 0.9403 | 6.053
x1 = 0.9649 | 6.276
x2 = 0.0193 | 6.411
